Experimental data from US7745492B2, “Carboxamido opioid compounds” (Janssen Pharmaceutical, priority 2004, dated 2010).

Columns and labels:
[1] = molecular target: recombinant human P450 2C19 (Homo sapiens, UniProt P33261); assay: Recombinant human P450 isoform inhibition, 2C19; assay type: in vitro ADME
Protocol: (§1) In a study using recombinant human P450 isoforms, the compound was only a weak inhibitor (IC50>10 μM) of all isoforms tested, 3A4, 2D6, 2C9, 2C19, and 1A2.

[2] = molecular target: recombinant human P450 2D6 (Homo sapiens, UniProt P10635); assay: Recombinant human P450 isoform inhibition, 2D6; assay type: in vitro ADME
Protocol: as §1

[3] = molecular target: T1, recombinant human P450 1A2 (Homo sapiens, UniProt P05177); assay: Recombinant human P450 isoform inhibition, 1A2; assay type: in vitro ADME
T1 sequence (P05177 1-516): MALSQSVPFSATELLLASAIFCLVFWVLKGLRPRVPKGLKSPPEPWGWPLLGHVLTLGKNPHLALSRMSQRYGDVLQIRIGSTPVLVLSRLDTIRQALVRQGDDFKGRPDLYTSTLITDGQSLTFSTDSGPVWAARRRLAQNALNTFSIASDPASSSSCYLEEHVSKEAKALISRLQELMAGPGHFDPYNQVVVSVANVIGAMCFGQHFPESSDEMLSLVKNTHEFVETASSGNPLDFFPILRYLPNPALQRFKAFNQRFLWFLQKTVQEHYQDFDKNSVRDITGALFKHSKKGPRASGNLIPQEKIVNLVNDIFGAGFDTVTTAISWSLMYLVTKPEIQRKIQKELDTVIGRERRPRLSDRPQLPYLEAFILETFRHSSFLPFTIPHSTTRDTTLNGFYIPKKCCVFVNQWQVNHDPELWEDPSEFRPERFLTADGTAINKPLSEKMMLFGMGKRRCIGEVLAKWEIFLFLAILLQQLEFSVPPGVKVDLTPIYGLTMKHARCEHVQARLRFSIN
Protocol: as §1

[4] = Metabolic stability in human liver microsomes; assay type: in vitro ADME
Protocol: (§2) The metabolic stability of Compound 3 was investigated using several approaches. The compound was incubated with liver microsomes from mouse, rat, dog and human and the percent of compound remaining after ten min quantified. The compound was metabolically robust in all species tested.
In a follow up study in human liver microsomes, the percent of compound remaining was determined at several incubation times (30, 60 and 90 min). The in vitro half life of the compound was determined to be >100 minutes.

male Sprague-Dawley rats = assay: Rat CFA radiant heat model of inflammatory pain; assay type: in vivo; details: dosed orally 24 h after intraplantar CFA
Protocol: Rat CFA Radiant Heat Model of Inflammatory Pain
Intraplantar injection of Complete Freund's Adjuvant (CFA) in rodents results in a strong, long-lasting inflammatory reaction, characterized by a chronic and pronounced hyperalgesia to both thermal and mechanical stimuli. These effects peak between 24-72 h following injection, and can last for several days to a few weeks. To assess the ability of compounds to reverse thermal hyperalgesia, male Sprague-Dawley rats (200-350 g) were given an intraplantar injection of CFA (1:1 CFA:saline, 100 μL) into their left hindpaw. Following a 24-h incubation period, response latencies on the Radiant Heat Paw Stimulator (RH) were obtained and compared to baseline (pre-CFA) latencies. The RH device automatically registered lifting of the paw from the surface of the glass. […] Following the post CFA latency assessment, rats were dosed orally (2.5 mL/kg) with test compound or vehicle (hydroxypropylmethylcellulose, HPMC). Percent reversal of hyperalgesia was calculated for each animal as (Treatment Response−postCFA Response)/(preCFA Response−postCFA Response)×100. Therefore, a return to normal pre-CFA thresholds was defined as 100% efficacy, whereas no change from post-CFA thresholds was 0% efficacy. Average % reversal of hyperalgesia was then calculated for each treatment group (n=6-8 rats/group). […]

[5] = molecular target: recombinant human P450 3A4 (Homo sapiens, UniProt P08684); assay: Recombinant human P450 isoform inhibition, 3A4; assay type: in vitro ADME
Protocol: as §1

[6] = Metabolic stability in mouse liver microsomes; assay type: in vitro ADME; details: 10 min incubation
Protocol: as §2

[7] = Metabolic stability in rat liver microsomes; assay type: in vitro ADME; details: 10 min incubation
Protocol: as §2

[8] = Glucuronidation in human liver microsomes; assay type: in vitro ADME; details: in vitro
[9] = molecular target: recombinant human P450 2C9 (Homo sapiens, UniProt P11712); assay: Recombinant human P450 isoform inhibition, 2C9; assay type: in vitro ADME
Protocol: as §1

delta opioid receptor = molecular target: T2, delta opioid receptor (Rattus norvegicus, UniProt P33533); assay: Rat brain delta opioid receptor binding assay ([3H]DPDPE); details: rat forebrain membranes, 25° C.
T2 construct: from tissue; host or cells: rat forebrain membrane (particulate) preparation
Protocol: Rat Brain Mu and Delta Opioid Receptor Binding Assay
Male, Wistar rats (150-250 g, VAF, Charles River, Kingston, N.Y.) were killed by cervical dislocation and their brains removed and placed immediately in ice cold Tris HCl buffer (50 mM, pH 7.4). The forebrains were separated from the remainder of the brain by a coronal transection, beginning dorsally at the colliculi and passing ventrally through the midbrain-pontine junction. After dissection, the forebrains were homogenized in Tris buffer in a Teflon®-glass homogenizer. The homogenate was diluted to a concentration of 1 g of forebrain tissue per 100 mL Tris buffer and centrifuged at 39,000×G for 10 min. The pellet was resuspended in the same volume of Tris buffer with several brief pulses from a Polytron homogenizer. This particulate preparation was used for the opioid receptor binding assays. […] The tubes and filters were rinsed three times with 4 mL of 10 mM HEPES (pH 7.4) and the radioactivity associated with the filter circles determined using Formula 989 scintillation fluid (New England Nuclear, Boston, Mass.) in a scintillation counter.
The data were used to calculate a Ki value, using GraphPad Prism.

[10] = Metabolic stability in dog liver microsomes; assay type: in vitro ADME; details: 10 min incubation
Protocol: as §2

Chain of recombinant human P450 2C19 (P33261 whole entry, canonical isoform): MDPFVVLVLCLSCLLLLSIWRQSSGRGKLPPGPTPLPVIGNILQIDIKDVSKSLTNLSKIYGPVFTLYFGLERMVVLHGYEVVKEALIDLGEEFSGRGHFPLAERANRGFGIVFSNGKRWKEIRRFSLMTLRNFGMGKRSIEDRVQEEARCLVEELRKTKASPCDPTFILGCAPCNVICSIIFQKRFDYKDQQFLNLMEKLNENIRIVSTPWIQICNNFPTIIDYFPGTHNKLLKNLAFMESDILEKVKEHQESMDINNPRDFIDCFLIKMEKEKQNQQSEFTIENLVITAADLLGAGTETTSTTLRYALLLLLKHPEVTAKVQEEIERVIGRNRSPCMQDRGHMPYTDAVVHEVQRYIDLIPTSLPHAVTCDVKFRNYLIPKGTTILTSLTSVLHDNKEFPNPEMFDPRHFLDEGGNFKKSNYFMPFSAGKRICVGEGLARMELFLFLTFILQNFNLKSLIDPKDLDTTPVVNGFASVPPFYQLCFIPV
Chain of recombinant human P450 2C9 (P11712 whole entry, canonical isoform): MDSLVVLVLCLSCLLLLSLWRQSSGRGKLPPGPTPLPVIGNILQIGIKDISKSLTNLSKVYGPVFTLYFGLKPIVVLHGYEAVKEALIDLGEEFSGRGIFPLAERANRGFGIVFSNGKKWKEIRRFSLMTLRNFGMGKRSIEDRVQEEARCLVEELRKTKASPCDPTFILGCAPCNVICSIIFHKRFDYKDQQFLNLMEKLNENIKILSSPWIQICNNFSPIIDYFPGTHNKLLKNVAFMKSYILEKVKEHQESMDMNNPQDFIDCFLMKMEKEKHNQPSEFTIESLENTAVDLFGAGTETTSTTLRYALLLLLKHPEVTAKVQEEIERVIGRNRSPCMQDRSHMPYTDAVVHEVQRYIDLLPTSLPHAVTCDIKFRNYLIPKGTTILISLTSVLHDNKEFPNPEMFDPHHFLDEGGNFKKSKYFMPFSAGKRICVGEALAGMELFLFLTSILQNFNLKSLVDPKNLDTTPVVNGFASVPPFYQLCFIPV
Chain of recombinant human P450 2D6 (P10635 whole entry, canonical isoform): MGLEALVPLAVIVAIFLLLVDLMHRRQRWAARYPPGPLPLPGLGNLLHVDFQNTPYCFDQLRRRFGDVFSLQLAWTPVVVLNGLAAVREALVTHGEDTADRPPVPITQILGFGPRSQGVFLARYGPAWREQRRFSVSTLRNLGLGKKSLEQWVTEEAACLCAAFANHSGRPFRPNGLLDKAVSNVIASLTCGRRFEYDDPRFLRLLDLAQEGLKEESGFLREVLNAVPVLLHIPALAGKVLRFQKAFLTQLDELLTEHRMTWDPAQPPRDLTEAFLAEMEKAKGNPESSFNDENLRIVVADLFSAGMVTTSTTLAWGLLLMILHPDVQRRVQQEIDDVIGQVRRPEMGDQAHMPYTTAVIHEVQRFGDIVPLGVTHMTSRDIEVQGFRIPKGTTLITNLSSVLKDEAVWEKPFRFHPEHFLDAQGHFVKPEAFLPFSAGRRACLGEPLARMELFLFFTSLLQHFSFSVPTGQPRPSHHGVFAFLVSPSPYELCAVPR
Chain of recombinant human P450 3A4 (P08684 whole entry, canonical isoform): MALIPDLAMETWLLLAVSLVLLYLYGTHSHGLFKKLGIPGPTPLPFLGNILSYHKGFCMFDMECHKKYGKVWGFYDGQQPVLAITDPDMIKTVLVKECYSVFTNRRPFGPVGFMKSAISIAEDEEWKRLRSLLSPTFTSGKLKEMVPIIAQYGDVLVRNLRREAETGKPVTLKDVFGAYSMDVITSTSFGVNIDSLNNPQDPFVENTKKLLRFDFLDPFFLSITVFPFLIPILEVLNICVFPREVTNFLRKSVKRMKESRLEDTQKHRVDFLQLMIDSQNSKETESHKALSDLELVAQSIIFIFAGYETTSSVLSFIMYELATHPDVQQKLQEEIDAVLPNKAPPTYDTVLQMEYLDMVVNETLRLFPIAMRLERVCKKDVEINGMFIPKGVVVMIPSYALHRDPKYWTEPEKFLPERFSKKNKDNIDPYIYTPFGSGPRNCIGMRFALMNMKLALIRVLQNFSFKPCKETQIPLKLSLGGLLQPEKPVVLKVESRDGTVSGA
T2 sequence (P33533 whole entry): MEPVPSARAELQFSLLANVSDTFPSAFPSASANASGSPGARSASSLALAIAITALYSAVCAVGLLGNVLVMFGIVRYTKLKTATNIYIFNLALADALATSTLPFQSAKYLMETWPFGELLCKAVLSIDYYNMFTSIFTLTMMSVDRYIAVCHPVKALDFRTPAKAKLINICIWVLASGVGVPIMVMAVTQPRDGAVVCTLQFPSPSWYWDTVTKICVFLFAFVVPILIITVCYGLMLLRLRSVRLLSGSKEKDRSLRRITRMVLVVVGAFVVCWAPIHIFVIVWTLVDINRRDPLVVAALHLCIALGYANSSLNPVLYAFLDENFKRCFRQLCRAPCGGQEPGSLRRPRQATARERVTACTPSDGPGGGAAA

CN(C)C[C@H]1CCCC[C@]1(O)c1cccc(C(N)=O)c1 (single isomer, unassigned) [Cpd 3] showed an IC50 [1] of over 10 µM, an IC50 [2] of over 10 µM and an IC50 [3] of over 10 µM. For the same compound, the “% remaining after 10 min” value ([4]; 10 min incubation) was 101.4%, the “Metabolism in human liver microsomes (result in words)” value ([4]; 10 min incubation) was “no metabolism of the compound was observed” and the half-life ([4]; incubation times 30, 60 and 90 min, read-out: In vitro half life) was over 1.67 h. For the same compound, the “Antihyperalgesic effect (reversal of thermal hyperalgesia)” value (male Sprague-Dawley rats) was “antihyperalgesic”, the IC50 [5] was over 10 µM and the “% remaining after 10 min” value [6] was 88.2%. The “% remaining after 10 min” value [7] was 94.5%, the Glucuronidation [8] was “no glucuronidation of the compound was detected” and the IC50 [9] was over 10 µM. For the same compound, the Ki (delta opioid receptor) was 3.14 µM and the “% remaining after 10 min” value [10] was 92.6%.
